Assays:
[1] = tested on: Streptococcus sp.; assay: in vitro antibacterial evaluation, MIC by broth dilution; assay type: cell-based; settings: broth dilution, 18 hours at 35° C.
Summary of the method: (§1)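 Broth dilution per NCCLS standard M7-A2 in Muller-Hinton II […], with an inoculum of 5×10^5 CFU/mL and antibiotic spanning 64-0.06 μg/mL. The MIC is the lowest concentration that inhibits growth of the organism.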

[2] = tested on: Staphylococcus sp.; assay: as above; assay type: cell-based; settings: broth dilution, 18 hours at 35° C.
Summary of the method: as §1

[3] = tested on: Enterococcus sp.; assay: as above; assay type: cell-based; settings: broth dilution, 18 hours at 35° C.
Summary of the method: as §1

[4] = tested on: Escherichia coli; assay: as above; assay type: cell-based; settings: 18 hours at 35° C.
Summary of the method: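 Broth dilution in Muller-Hinton II medium per NCCLS standard M7-A2, with an inoculum of 5×10^5 CFU/mL and antibiotic tested over 64-0.06 μg/mL. MIC was taken as the lowest concentration inhibiting visible growth.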

[5] = anatomic pathology (histopathology of heart and kidney) in mice; assay type: in vivo; settings: CD-1 mice, 20 mg/kg intravenously daily for 9 days, necropsy day 10, microscopic histopathology
Description: Samples of tissues from necropsied mice were formalin-fixed, paraffin-embedded, sectioned, stained with hematoxylin and eosin, and examined microscopically. Histopathologic findings were recorded. These findings were subjectively graded on a scale corresponding to slight, mild, moderate, marked and severe as compared to untreated controls.

Structure (SMILES): CC(c1ccccc1)C1NC(=O)CNC(=O)C(CO)NC(=O)C(C(O)C2CNC(=NCc3ccccc3)N2C2OC(CO)C(O)C(O)C2O)NC(=O)C(C(O)C2CNC(=N)N2)NC(=O)C(Cc2ccc(OC3OC(CO)C(OC4OC5COC6(OC5C(O)C4O)C4CC5CC(C4)CC6C5)C(O)C3O)cc2)NC1=O (stereo not drawn) [Example 76, Cyclo[glycyl-β-methylphenylalanyl-O-[4-O-[4,6-O-(2-adamantylidene)hexopyranosyl]hexopyranosyl]tyrosyl-3-(2-iminoimidazolidin-4-yl)seryl-3-[2-(benzylimino)-3-hexopyranosylimidazolidin-4-yl]serylseryl]]
- MIC Streptococcus agalactiae (GC 4564) [1]: 0.25 to 2 µg/mL
- MIC Streptococcus pneumoniae (ATCC 6301) [1]: <0.12 to 1 µg/mL
- MIC Streptococcus pneumoniae (GC 1894) [1]: <0.06 to 0.25 µg/mL
- MIC Streptococcus pneumoniae (GC 4565) [1]: 0.25 to 4 µg/mL
- MIC Streptococcus pyogenes (GC 4563) [1]: 0.25 to 2 µg/mL
- MIC Staphylococcus aureus (ATCC 29213) ([2]; strain ATCC 29213): 2 to 8 µg/mL
- MIC Staphylococcus aureus (GC 1131) ([2]; strain GC 1131): 4 to 8 µg/mL
- MIC Staphylococcus aureus (GC 3051) ([2]; strain GC 3051): 2 to 8 µg/mL
- MIC Staphylococcus aureus (GC 3053) ([2]; strain GC 3053): 2 to 8 µg/mL
- MIC Staphylococcus aureus (GC 4541) ([2]; strain GC 4541): 2 to 4 µg/mL
- MIC Staphylococcus aureus (GC 4542) ([2]; strain GC 4542): 2 to 8 µg/mL
- MIC Staphylococcus aureus-SMITH (GC 4543) ([2]; strain GC 4543): 1 to 4 µg/mL
- MIC Staphylococcus aureus (GC 4544) ([2]; strain GC 4544): 4 to 8 µg/mL
- MIC Staphylococcus aureus (GC 4545) ([2]; strain GC 4545): 2 to 8 µg/mL
- MIC Staphylococcus haemolyticus (GC 4546) ([2]; strain GC 4546): 2 to 4 µg/mL
- MIC Coagulase Negative Staphylococcus (GC 4547) ([2]; strain GC 4547): 2 to 4 µg/mL
- MIC Coagulase Negative Staphylococcus (GC 4548) ([2]; strain GC 4548): 2 to 4 µg/mL
- MIC Coagulase Negative Staphylococcus (GC 4549) ([2]; strain GC 4549): 2 to 4 µg/mL
- MIC Coagulase Negative Staphylococcus (GC 4551) ([2]; strain GC 4551): 2 to 8 µg/mL
- MIC Coagulase Negative Staphylococcus (GC 6257) ([2]; strain GC 6257): 0.5 to 2 µg/mL
- MIC Enterococcus avium (GC 4558) ([3]; Enterococcus avium (GC 4558)): 2 to 8 µg/mL
- MIC Enterococcus faecalis (GC 4553) ([3]; Enterococcus faecalis (GC 4553)): 4 to 8 µg/mL
- MIC Enterococcus faecium (GC 2243) ([3]; Enterococcus faecium (GC 2243)): 2 to 8 µg/mL
- MIC Enterococcus faecium (GC 4557) ([3]; Enterococcus faecium (GC 4557)): 1 to 2 µg/mL
- MIC Enterococcus avium (GC 4558) [3]: 2 to 8 µg/mL
- MIC Enterococcus faecalis (ATCC 29212) [3]: 4 to 16 µg/mL
- MIC Enterococcus faecalis (GC 2242) [3]: 4 to 16 µg/mL
- MIC Enterococcus faecalis (GC 2691) [3]: 4 to 16 µg/mL
- MIC Enterococcus faecalis (GC 3059) [3]: 4 to 32 µg/mL
- MIC Enterococcus faecalis (GC 4552) [3]: 4 to 16 µg/mL
- MIC Enterococcus faecalis (GC 4553) [3]: 4 to 8 µg/mL
- MIC Enterococcus faecalis (GC 4554) [3]: 4 to 32 µg/mL
- MIC Enterococcus faecalis (GC 6189) [3]: 4 to 16 µg/mL
- MIC Enterococcus faecium (GC 2243) [3]: 2 to 8 µg/mL
- MIC Enterococcus faecium (GC 4556) [3]: 4 to 16 µg/mL
- MIC Enterococcus faecium (GC 4557) [3]: 1 to 2 µg/mL
- MIC Escherichia coli (GC 4560) [4]: 2 to 4 µg/mL
- Anatomical Pathology (Day 10), Heart [5]: 0
- Anatomical Pathology (Day 10), Kidney [5]: ++

Reference: patent US6914045B2, “Glycopeptide antibiotics” (Wyeth Holdings Corporation, priority 2001, dated 2005)
